Data: ChEMBL document CHEMBL3045549, “Solvent-free, green and efficient synthesis of pyrano[4, 3-b]pyrans by grinding and their biological evaluation as antitumor and antioxidant agents” (Med Chem Res, 2013)

Legend:
MCF7 = assay: Cytotoxicity against human MCF7 cells after 96 hrs by MTT assay; type: functional, cell-based; conditions: MCF7, 96 h
[1] = system: Radical scavenging activity; assay: Antioxidant activity assessed as inhibition of DPPH radical after 30 mins by spectrophotometric analysis; type: functional

Row | IC50 [1] | SMILES | IC50 (MCF7)
1 | 228 µM | Cc1cc2c(c(=O)o1)C(c1ccco1)C(C#N)=C(N)O2 (configuration not stated) | 27 µM
2 | 816 µM | Cc1cc2c(c(=O)o1)C(c1ccc([N+](=O)[O-])cc1)C(C#N)=C(N)O2 (configuration not stated) | 42 µM
3 | 440 µM | Cc1cc2c(c(=O)o1)C(c1c[nH]c3ccc(Br)cc13)C(C#N)=C(N)O2 (configuration not stated) | 5 µM
4 | 512 µM | Cc1cc2c(c(=O)o1)C(c1ccc(Br)cc1)C(C#N)=C(N)O2 (configuration not stated) | 35 µM
5 | 567 µM | Cc1cc2c(c(=O)o1)C(c1c[nH]c3ccc(C#N)cc13)C(C#N)=C(N)O2 (configuration not stated) | 7 µM
6 | 616 µM | Cc1cc2c(c(=O)o1)C(c1ccc(Cl)s1)C(C#N)=C(N)O2 (configuration not stated) | 12 µM
7 | 339 µM | Cc1cc2c(c(=O)o1)C(c1c[nH]c3ccccc13)C(C#N)=C(N)O2 (configuration not stated) | 10 µM
8 | 943 µM | Cc1cc2c(c(=O)o1)C(c1ccc(C)s1)C(C#N)=C(N)O2 (configuration not stated) | 22 µM
9 | 487 µM | Cc1cc2c(c(=O)o1)C(c1ccc(Cl)cc1)C(C#N)=C(N)O2 (configuration not stated) | 32 µM
10 | 739 µM | Cc1cc2c(c(=O)o1)C(c1cccs1)C(C#N)=C(N)O2 (configuration not stated) | 15 µM
11 | 634 µM | Cc1ccc(C2C(C#N)=C(N)Oc3cc(C)oc(=O)c32)cc1 (configuration not stated) | 54 µM
12 | 520 µM | COc1ccc(C2C(C#N)=C(N)Oc3cc(C)oc(=O)c32)cc1 (configuration not stated) | 57 µM
13 | 106 µM | O=C1O[C@H]([C@@H](O)CO)C(O)=C1O [ASCORBIC ACID] | –
14 | 769 µM | Cc1cc2c(c(=O)o1)C(c1ccccc1)C(C#N)=C(N)O2 (configuration not stated) | 46 µM
